# Article PMC2700083, “A covalent peptide inhibitor of RGS4 identified in a focused one-bead, one compound library screen” (BMC Pharmacology, 2009)
# Marks after values point to notes of the source that are not given here. *1 amine or outer side, *2 acyl side, *3 side chain or, on linkers, in order; H or OH if unused. Where a SMILES comes first, the peptide text is derived from it. Bridges are numbered along the chain shown (N, C = ends). CH2 = C([*:1])[*:2]
# Columns and labels:
# RGS4 [1] = target: T1, RGS4 (Rattus norvegicus, UniProt P49799); assay: FCPIA (flow cytometry protein interaction assay), RGS4-Gαo interaction, wild type RGS4 (MBP-RGS4Δ51N); type: binding
# T1 construct: made in house
# T1 sequence (P49799 52-205 limits assumed): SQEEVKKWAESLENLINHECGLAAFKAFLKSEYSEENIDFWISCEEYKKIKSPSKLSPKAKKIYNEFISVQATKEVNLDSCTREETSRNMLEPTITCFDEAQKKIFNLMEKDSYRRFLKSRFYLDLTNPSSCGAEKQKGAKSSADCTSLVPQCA
# Procedure: (§1) We recently described a bead-based screen in which 2.5 × 10^6 different peptide sequences were prepared as a OBOC library. Fluorescently labeled RGS4 was used to probe the library for peptides that bind RGS4 [5]. […] Since the majority of those hit peptides could bind tightly to the RGS without disrupting GAP activity, they were also tested in the flow cytometry protein interaction assay (FCPIA) (Figure 1), which measures the interaction between RGS4 and Gαo. In this method we used a Luminex flow cytometer to detect the binding of Alexa Fluor 532-labeled Gαo to biotinylated RGS4 on avidin beads in the presence of AMF (AlCl3, MgCl2, NaF and GDP) to put the Gα subunit into a transition state-like conformation. Peptides were tested at 50 μM except where limited by solubility (Table 1).
# Figure 1 Hit peptides in the FCPIA. Hit peptides from Roof, et al. 2008 were tested at 50 μM unless otherwise indicated for ability to disrupt the RGS4-Gαo interaction as described using 25 nM Gα o-Alexa Fluor-532 and 5 nM wild type RGS4-biotin (mean ± S.E.M., n ≥ 3) *p < 0.05, **p < 0.01, ***p < 0.001 compared to no peptide.
# (§2) Proteins were expressed, purified and labeled as described previously. The mutagenesis was done using the "QuickChange Multi Site-Directed Mutagenesis Kit" from Stratagene according to the manufacturer's protocol. The construct of RGS4 used in these studies is a maltose binding protein (MBP-) fusion protein of the RGS4 sequence from which the amphipathic N-terminal helix has been removed (i.e. MBP-RGS4Δ51N). For simplicity in the text, this will be referred to as RGS4. All other RGS proteins were human sequences and were used as Mpb fusions: RGS7 RGS domain (aa: 305–453), RGS8 full length, RGS16 full length, and RGS19ΔC11 (amino acids 1–209). To cleave RGS4Δ51N from the MBP-His6 construct for MS analysis, MBP-His6-RGS4Δ51N was treated with 15% MBP-His6-TEV protease S219V [11] for 22 hours at 4°C and purified over a Ni-NTA column.
# FCPIA was performed as previously published.
# [2] = Solubility in buffer by HPLC; type: physicochemical; settings: in buffer, determined by HPLC; for solubility: read-out: Buffer Solubility
# Procedure: Soluble peptides were synthesized on Rink resin, cleaved and cyclized as described previously. Peptide purity (at least 95%) and solubility were verified by high-performance liquid chromatography and correct mass was verified by MS analysis. ALogP calculations are from. Peptides were prepared as 5 mM stocks in DMSO.
# RGS8 [3] = target: T2, RGS8 (Homo sapiens, UniProt P57771); set-up: method as in earlier work; settings: David Roman, in preparation; cited from earlier work
# T2 construct: RGS8 full length; made in house
# T2 sequence (P57771 1-180): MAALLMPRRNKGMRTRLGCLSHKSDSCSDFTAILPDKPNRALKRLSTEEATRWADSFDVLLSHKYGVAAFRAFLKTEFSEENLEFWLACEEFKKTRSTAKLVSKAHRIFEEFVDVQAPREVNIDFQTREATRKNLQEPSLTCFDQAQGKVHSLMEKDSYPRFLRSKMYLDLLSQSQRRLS
# RGS8 [4] = target: T2, RGS8; assay: FCPIA, Gαo binding to RGS8; settings: no wash, read-out: percent inhibition, RGS8
# Procedure: as §1
# 5nd inhibited Gαo binding to a number of different RGS proteins (Figure 2). […] RGS19 and RGS7 are in the RZ and R7 families, respectively and show less inhibition by 5nd. Linear as well as bridged versions of peptide 5 were tested in the FCPIA since cyclization yields would most likely have been less then 100% in the synthesis of the library leaving some linear peptides present on each bead. […] This may be due to lack of structural rigidity necessary for the correct interaction of the peptide with the RGS protein or a role for chemical reactivity of the disulfide.
# Figure 2 Characterization of hit 5. A) and B) Dose response curves for 5nd in the FCPIA with different RGS proteins (RGS Family), (mean ± S.E.M., n = 3) *p < 0.05, **p < 0.01, ***p < 0.001 compared to RGS4 at the same 5nd concentration. C) Peptides were tested at 50 μM as in Figure 1, (mean ± S.E.M., n ≥ 3) *p < 0.05, **p < 0.01, ***p < 0.001 compared to no peptide.
# Figure 3 Irreversibility experiments. RGS-biotin on avidin beads was treated with 5nd (100 μM) or 5nm (100 μM) and then washed in buffer (with or without 1 mM DTT) or not washed and put in the FCPIA using RGS4 (A) or RGS8 (B) (mean ± S.E.M., n ≥ 2) *p < 0.05, **p < 0.01, ***p < 0.001 compared to no peptide (100%); #p < 0.05, ##p < 0.01, ###p < 0.001 compared to 5nd no wash.
# as §2, with “To cleave RGS4Δ51N from the MBP-His6 construct for MS analysis, MBP-His6-RGS4Δ51N was treated with 15% MBP-His6-TEV protease S219V [11] for 22 hours at 4°C and purified over a Ni-NTA column.” left out
# RGS4 [5] = target: T1, RGS4; assay: FCPIA (flow cytometry protein interaction assay), RGS4-Gαo interaction, wild type RGS4 (MBP-RGS4Δ51N); type: binding; settings: peptide 100 μM
# [6] = peptide 50 μM, 25 nM Gαo-Alexa Fluor-532, 5 nM RGS4-biotin
compound,measurement,setting,value
"CC(=O)N[C@@H](Cc1ccc(O)cc1)C(=O)N[C@@H](CC(N)=O)C(=O)N[C@H]1CSSC[C@@H](C(=O)N[C@@H](CCCCN)C(N)=O)NC(=O)[C@H](CCC(=O)O)NC(=O)CNC(=O)[C@H](CCC(N)=O)NC1=O [Peptide 1ad, Ac-YNCQGECK-NH2] (Ac-YNCQGECK-NH2; disulfide 3-7)",% Inhibition of RGS4-Gαo,RGS4 [1]; [6],14 ± 6%
same,solubility,[2],123 µM
"C[C@@H](O)[C@@H]1NC(=O)CNC(=O)[C@H](Cc2ccccc2)NC(=O)[C@@H](NC(=O)[C@@H](NC(=O)CN)[C@@H](C)O)CSSC[C@@H](C(=O)N[C@@H](Cc2c[nH]c3ccccc23)C(N)=O)NC1=O [Peptide 2nd, GTCFGTCW-NH2] (H-GTCFGTCW-NH2; disulfide 3-7)",% Inhibition of RGS4-Gαo,RGS4 [1]; [6],19 ± 3** %
same,solubility,[2],464 µM
"COS(=NS(=O)(=O)c1ccc(Cl)cc1)c1ccc([N+](=O)[O-])cc1 (stereo not drawn) [CCG-4986, methyl N-[(4-chlorophenyl)sulfonyl]-4-nitrobenzenesulfinimidoate]",activity against RGS8,RGS8 [3],no activity
"CC(=O)NCC(=O)N[C@H](C(=O)N[C@H]1CSSC[C@@H](C(=O)N[C@@H](Cc2c[nH]c3ccccc23)C(N)=O)NC(=O)[C@H]([C@@H](C)O)NC(=O)CNC(=O)[C@H](Cc2ccccc2)NC1=O)[C@@H](C)O [Peptide 2ad, Ac-GTCFGTCW-NH2] (Ac-GTCFGTCW-NH2; disulfide 3-7)",% Inhibition of RGS4-Gαo,RGS4 [1]; peptide 10 μM,10 ± 4 (10 μM) %
same,solubility,[2],30 µM
"CC(C)C[C@H](N)C(=O)N[C@H](C(=O)N[C@H]1CSSC[C@@H](C(=O)N[C@@H](CCC(N)=O)C(N)=O)NC(=O)[C@H](Cc2ccc(O)cc2)NC(=O)CNC(=O)[C@H](CCCCN)NC1=O)C(C)C [Peptide 3nd, LVCKGYCQ-NH2] (H-LVCKGYCQ-NH2; disulfide 3-7)",% Inhibition of RGS4-Gαo,RGS4 [1]; [6],12 ± 2%
same,solubility,[2],≥ 470 µM
"CC[C@H](C)[C@@H]1NC(=O)CNC(=O)[C@H]([C@@H](C)O)NC(=O)[C@@H](NC(=O)[C@H](CCCCN)NC(=O)[C@@H](NC(C)=O)C(C)C)CSSC[C@@H](C(=O)N[C@@H](CCC(=O)O)C(N)=O)NC1=O [YJ34, Ac-Val-Lys-c [Cys-Thr-Gly-Ile-Cys]-Glu-NH2, S-S, reference compound] (Ac-VKCTGICE-NH2; disulfide 3-7)",% Inhibition of RGS4-Gαo,RGS4 [1]; peptide 40 μM,-17 ± 4 (40 μM) %
same,solubility,[2],80 µM
"CSCC[C@@H]1NC(=O)[C@@H](NC(=O)[C@@H](NC(=O)[C@@H](N)CCCCN)C(C)C)CSSC[C@@H](C(=O)N[C@H](C(N)=O)[C@@H](C)O)NC(=O)CNC(=O)CNC1=O [Peptide 4nd, KVCMGGCT-NH2] (H-KVCMGGCT-NH2; disulfide 3-7)",% Inhibition of RGS4-Gαo,RGS4 [1]; [6],4 ± 3%
same,solubility,[2],≥ 470 µM
"CC(=O)N[C@@H](Cc1ccc(O)cc1)C(=O)N[C@@H](Cc1c[nH]c2ccccc12)C(=O)N[C@H]1CSSC[C@@H](C(=O)N[C@@H](CCCCN)C(N)=O)NC(=O)[C@H](CC(C)C)NC(=O)CNC(=O)[C@H](CCCCN)NC1=O [Peptide 5ad, Ac-YWCKGLCK-NH2] (Ac-YWCKGLCK-NH2; disulfide 3-7)",% Inhibition of RGS4-Gαo,RGS4 [1]; [6],37 ± 3*** %
same,solubility,[2],464 µM
"CC(=O)N[C@@H](Cc1ccc(O)cc1)C(=O)N[C@@H](Cc1c[nH]c2ccccc12)C(=O)N[C@@H](CS)C(=O)N[C@@H](CCCCN)C(=O)NCC(=O)N[C@@H](CC(C)C)C(=O)N[C@@H](CS)C(=O)N[C@@H](CCCCN)C(N)=O [Peptide 5al, Ac-YWCKGLCK-NH2] (Ac-YWCKGLCK-NH2)",solubility,[2],460 µM
"CC(=O)N[C@@H](CCCCN)C(=O)N[C@@H](Cc1c[nH]cn1)C(=O)N[C@H]1CSSC[C@@H](C(=O)N[C@@H](Cc2ccc(O)cc2)C(N)=O)NC(=O)[C@H](Cc2ccccc2)NC(=O)CNC(=O)[C@H](Cc2ccc(O)cc2)NC1=O [Peptide 6ad, Ac-KHCYGFCY-NH2] (Ac-KHCYGFCY-NH2; disulfide 3-7)",% Inhibition of RGS4-Gαo,RGS4 [1]; [6],27 ± 4*** %
same,solubility,[2],421 µM
"CC(=O)N[C@@H](CC(C)C)C(=O)N[C@H](C(=O)N[C@H]1CSSC[C@@H](C(=O)N[C@@H](CCC(N)=O)C(N)=O)NC(=O)[C@H](Cc2ccc(O)cc2)NC(=O)CNC(=O)[C@H](CCCCN)NC1=O)C(C)C [Peptide 3ad, Ac-LVCKGYCQ-NH2] (Ac-LVCKGYCQ-NH2; disulfide 3-7)",% Inhibition of RGS4-Gαo,RGS4 [1]; [6],10 ± 3%
same,solubility,[2],427 µM
"NCCCC[C@H](N)C(=O)N[C@@H](Cc1c[nH]cn1)C(=O)N[C@H]1CSSC[C@@H](C(=O)N[C@@H](Cc2ccc(O)cc2)C(N)=O)NC(=O)[C@H](Cc2ccccc2)NC(=O)CNC(=O)[C@H](Cc2ccc(O)cc2)NC1=O [Peptide 6nd, KHCYGFCY-NH2] (H-KHCYGFCY-NH2; disulfide 3-7)",% Inhibition of RGS4-Gαo,RGS4 [1]; peptide 25 μM,23 ± 15 (25 μM) * %
same,Buffer Solubility,[2],Low
"CC(C)C[C@H](NC(=O)CNC(=O)[C@H](CCCCN)NC(=O)[C@H](CS)NC(=O)[C@H](Cc1c[nH]c2ccccc12)NC(=O)[C@@H](N)Cc1ccc(O)cc1)C(=O)N[C@@H](CS)C(=O)N[C@@H](CCCCN)C(N)=O [Peptide 5nl, YWCKGLCK-NH2] (H-YWCKGLCK-NH2)",solubility,[2],465 µM
"CC(C)C[C@@H]1NC(=O)CNC(=O)[C@H](CCCCN)NC(=O)[C@@H](NC(=O)[C@H](Cc2c[nH]c3ccccc23)NC(=O)[C@@H](N)Cc2ccc(O)cc2)CSCSC[C@@H](C(=O)N[C@@H](CCCCN)C(N)=O)NC1=O [Peptide 5nm, YWCKGLCK-NH2] (H-YWCKGLCK-NH2; linker 3-7 via CH2)",inhibition at 100 µM,RGS8 [4],18 ± 1%
same,solubility,[2],≥ 470 µM
same,% Inhibition of RGS4-Gαo,RGS4 [5],3 ± 0.1 (100 μM) %
"NCCCC[C@H](NC(=O)[C@@H]1CSSC[C@H](NC(=O)[C@H](CC(N)=O)NC(=O)[C@@H](N)Cc2ccc(O)cc2)C(=O)N[C@@H](CCC(N)=O)C(=O)NCC(=O)N[C@@H](CCC(=O)O)C(=O)N1)C(N)=O [Peptide 1nd, YNCQGECK-NH2] (H-YNCQGECK-NH2; disulfide 3-7)",% Inhibition of RGS4-Gαo,RGS4 [1]; [6],2 ± 4%
same,solubility,[2],≥ 420 µM
"CSCC[C@@H]1NC(=O)[C@@H](NC(=O)[C@@H](NC(=O)[C@H](CCCCN)NC(C)=O)C(C)C)CSSC[C@@H](C(=O)N[C@H](C(N)=O)[C@@H](C)O)NC(=O)CNC(=O)CNC1=O [Peptide 4ad, Ac-KVCMGGCT-NH2] (Ac-KVCMGGCT-NH2; disulfide 3-7)",% Inhibition of RGS4-Gαo,RGS4 [1]; [6],9 ± 6%
same,solubility,[2],459 µM
